Results: patent publication US20150065717A1, “NIPECOTIC ACID DERIVATIVE AND USE THEREOF FOR MEDICAL PURPOSES” (Toray Industries, Inc., priority 2012, published 2015)

What follows are molecules tested against T1, recombinant human sEH (Homo sapiens, UniProt P34913) (assay: In vitro evaluation test for sEH inhibitory activity). Conditions: recombinant human sEH 0.026 μg/mL, fluorescent substrate 6.25 μmol/L, room temperature.
T1 construct: purchased Cayman
T1 sequence (P34913 1-555): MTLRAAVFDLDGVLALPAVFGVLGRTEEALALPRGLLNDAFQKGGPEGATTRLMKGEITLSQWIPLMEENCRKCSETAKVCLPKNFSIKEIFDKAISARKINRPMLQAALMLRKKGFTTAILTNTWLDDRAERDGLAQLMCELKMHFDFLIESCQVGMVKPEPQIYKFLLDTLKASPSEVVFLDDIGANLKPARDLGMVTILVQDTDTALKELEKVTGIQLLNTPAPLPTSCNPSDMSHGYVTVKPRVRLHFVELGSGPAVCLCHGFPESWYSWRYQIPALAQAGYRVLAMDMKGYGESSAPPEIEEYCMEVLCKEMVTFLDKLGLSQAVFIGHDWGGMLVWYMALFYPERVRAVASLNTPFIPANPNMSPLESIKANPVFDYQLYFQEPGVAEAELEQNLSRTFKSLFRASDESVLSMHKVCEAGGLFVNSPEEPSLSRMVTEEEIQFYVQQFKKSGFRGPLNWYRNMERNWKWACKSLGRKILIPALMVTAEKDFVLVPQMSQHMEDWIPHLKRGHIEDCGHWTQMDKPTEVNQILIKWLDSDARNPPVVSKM
Format: biochemical
Protocol: According to the method described in a known document (Analytical Biochemistry, 2005, vol. 343, p. 66-75), the sEH inhibitory activity of each nipecotic acid derivative (I) or a pharmaceutically acceptable salt thereof was evaluated using human sEH.
A recombinant human sEH (final concentration, 0.026 μg/mL; Cayman) was incubated with each test compound in 25 mM Bis-Tris-HCl buffer (pH 7.0) supplemented with 0.1 mg/mL BSA at room temperature for 30 minutes. Thereafter, cyano(6-methoxynaphthalen-2-yl)methyl 2-(3-phenyloxiran-2-yl)acetate (final concentration, 6.25 μmol/L; Cayman) was added thereto as a fluorescent substrate, and the resulting mixture was incubated at room temperature for 20 minutes. The reaction was then stopped by addition of ZnSO4 (final concentration, 0.2 mol/L), and the fluorescence intensity was measured (Fusion α (Packard); Excitation: 330 nm, Emission:485 nm).
The fluorescence intensity observed with addition of neither sEH nor a test compound was regarded as the sEH enzymatic reaction rate of 0%, and the fluorescence intensity observed with addition of sEH but without addition of a test compound was regarded as the sEH enzymatic reaction rate of 100%. From the obtained fluorescence intensity, the sEH enzymatic reaction rate of each test compound was calculated to determine IC50.
For `O=C(Nc1ccc(C(F)(F)F)cn1)[C@@H]1CCCN(C(=O)C2(O)CCCCC2)C1` [Comparative Example Compound 1, (R)-1-(1-hydroxycyclohexanecarbonyl)-N-(5-(trifluoromethyl)pyridin-2-yl)piperidine-3-carboxamide, reference compound], the IC50 was > 20 nM.
`CC(=O)NCC(=O)N1CCC[C@@H](C(=O)NCc2ccc(C#N)cc2OC(F)(F)F)C1` [Comparative Example Compound 2, (R)-1-(2-acetamidoacetyl)-N-(4-cyano-2-(trifluoromethoxy)benzyl)piperidine-3-carboxamide, reference compound] was tested, and the IC50 was > 30 nM.
In the case of `CS(=O)(=O)NC1(C(=O)N2CCC[C@@H](C(=O)NCc3ccc(C#N)cc3OC(F)(F)F)C2)CC1` [Example Compound 3, (R)—N-(4-cyano-2-(trifluoromethoxy)benzyl)-1-(1-(methylsulfonamido)cyclopropanecarbonyl)piperidine-3-carboxamide], the IC50 is reported as 3.5 nM.
`N#Cc1ccc(CNC(=O)[C@@H]2CCCN(C(=O)C3(C(F)(F)F)CC3)C2)c(OC(F)(F)F)c1` [Example Compound 4, (R)—N-(4-cyano-2-(trifluoromethoxy)benzyl)-1-(1-(trifluoromethyl)cyclopropanecarbonyl)piperidine-3-carboxamide] was tested, and the IC50 was 1 nM.
In the case of `CS(=O)(=O)NC1(C(=O)N2CCC[C@@H](C(=O)NCc3ccc(C#N)cc3OC(F)(F)F)C2)CCC1` [Example Compound 5, (R)—N-(4-cyano-2-(trifluoromethoxy)benzyl)-1-(1-(methylsulfonamido)cyclobutanecarbonyl)piperidine-3-carboxamide], the IC50 is reported as 1 nM.
With `CC(C)C(=O)NC1(C(=O)N2CCC[C@@H](C(=O)NCc3ccc(C#N)cc3OC(F)(F)F)C2)CCC1` [Example Compound 6, (R)—N-(4-cyano-2-(trifluoromethoxy)benzyl)-1-(1-isobutylamidocyclobutanecarbonyl)piperidine-3-carboxamide] the IC50 was 1 nM.
`CC(C)(C)C(=O)NC1(C(=O)N2CCC[C@@H](C(=O)NCc3ccc(C#N)cc3OC(F)(F)F)C2)CCC1` [Example Compound 7, (R)—N-(4-cyano-2-(trifluoromethoxy)benzyl)-1-(1-pivalamidocyclobutanecarbonyl)piperidine-3-carboxamide] was tested, and the IC50 was 0.8 nM.
Molecule `CC(=O)NC1(C(=O)N2CCC[C@@H](C(=O)NCc3ccc(C#N)cc3OC(F)(F)F)C2)CCCC1` [Example Compound 8, (R)-1-(1-acetamidocyclopentanecarbonyl)-N-(4-cyano-2-(trifluoromethoxy)benzyl)piperidine-3-carboxamide] has an IC50 of 1.7 nM.
With `CC(=O)NC1(C(=O)N2CCC[C@@H](C(=O)NCc3ccc(C#N)cc3OC(F)(F)F)C2)CCC1` [Example Compound 9, (R)-1-(1-acetamidocyclobutanecarbonyl)-N-(4-cyano-2-(trifluoromethoxy)benzyl)piperidine-3-carboxamide] the IC50 was 6.1 nM.
Molecule `CC(C)(NS(C)(=O)=O)C(=O)N1CCC[C@@H](C(=O)NCc2ccc(Cl)cc2OCC(F)(F)F)C1` [Example Compound 10, (R)—N-(4-chloro-2-(2,2,2-trifluoroethoxy)benzyl)-1-(2-methyl-2-(methylsulfonamido)propanoyl)piperidine-3-carboxamide] has an IC50 of 2.6 nM.
Work on `CC(=O)N[C@@H](C(=O)N1CCC[C@@H](C(=O)NCc2ccc(C#N)cc2OC(F)(F)F)C1)C(C)C` [Example Compound 11, (R)-1-((R)-2-acetamido-3-methylbutanoyl)-N-(4-cyano-2-(trifluoromethoxy)benzyl)piperidine-3-carboxamide] yielded an IC50 of 0.5 nM.
In the case of `CC(C)[C@@H](NS(C)(=O)=O)C(=O)N1CCC[C@@H](C(=O)NCc2ccc(C#N)cc2OC(F)(F)F)C1` [Example Compound 12, (R)—N-(4-cyano-2-(trifluoromethoxy)benzyl)-1-((R)-3-methyl-2-(methylsulfonamido)butanoyl)piperidine-3-carboxamide], the IC50 is reported as 0.3 nM.
`CCS(=O)(=O)NC1(C(=O)N2CCC[C@@H](C(=O)NCc3ccc(C#N)cc3OC(F)(F)F)C2)CC1` [Example Compound 13, (R)—N-(4-cyano-2-(trifluoromethoxy)benzyl)-1-(1-(ethylsulfonamido)cyclopropanecarbonyl)piperidine-3-carboxamide] was tested, and the IC50 was 1.4 nM.
`CC(C)(NS(C)(=O)=O)C(=O)N1CCC[C@@H](C(=O)NCc2ccc(C(N)=O)cc2OC(F)(F)F)C1` [Example Compound 14, (R)—N-(4-carbamoyl-2-(trifluoromethoxy)benzyl)-1-(2-methyl-2-(methylsulfonamido)propanoyl)piperidine-3-carboxamide] showed an IC50 of 1.5 nM.
`CS(=O)(=O)NC1(C(=O)N2CCC[C@@H](C(=O)NCc3ccc(C(N)=O)cc3OC(F)(F)F)C2)CC1` [Example Compound 15] was tested, and the IC50 was 1.9 nM.
`CC(C)(O)C(=O)N1CCC[C@@H](C(=O)NCc2ccc(C#N)cc2OC(F)(F)F)C1` [Example Compound 16, (R)—N-(4-cyano-2-(trifluoromethoxy)benzyl)-1-(2-hydroxy-2-methylpropanoyl)piperidine-3-carboxamide] showed an IC50 of 2.4 nM.
Molecule `CC(C)(C)C(=O)N1CCC[C@@H](C(=O)NCc2ccc(C#N)cc2OC(F)(F)F)C1` [Example Compound 17, (R)—N-(4-cyano-2-(trifluoromethoxy)benzyl)-1-pivaloylpiperidine-3-carboxamide] has an IC50 of 1.1 nM.
With `CN(C1(C(=O)N2CCC[C@@H](C(=O)NCc3ccc(C#N)cc3OC(F)(F)F)C2)CC1)S(C)(=O)=O` [Example Compound 18, (R)—N-(4-cyano-2-(trifluoromethoxy)benzyl)-1-(1-(N-methylmethylsulfonamido)cyclopropanecarbonyl)piperidine-3-carboxamide] the IC50 was 1.6 nM.
`CC(C)(CO)C(=O)N1CCC[C@@H](C(=O)NCc2ccc(C#N)cc2OC(F)(F)F)C1` [Example Compound 19, (R)—N-(4-cyano-2-(trifluoromethoxy)benzyl)-1-(3-hydroxy-2,2-dimethylpropanoyl)piperidine-3-carboxamide] was tested, and the IC50 was 1.3 nM.
`N#Cc1ccc(CNC(=O)[C@@H]2CCCN(C(=O)C3(O)CCCCC3)C2)c(OC(F)(F)F)c1` [Example Compound 20, (R)—N-(4-cyano-2-(trifluoromethoxy)benzyl)-1-(1-hydroxycyclohexanecarbonyl)piperidine-3-carboxamide] showed an IC50 of 0.7 nM.
For `CC[C@@H](NC(C)=O)C(=O)N1CCC[C@@H](C(=O)NCc2ccc(C#N)cc2OC(F)(F)F)C1` [Example Compound 21, (R)-1-((R)-2-acetamidobutanoyl)-N-(4-cyano-2-(trifluoromethoxy)benzyl)piperidine-3-carboxamide], the IC50 was 0.9 nM.
`CC[C@@H](NS(C)(=O)=O)C(=O)N1CCC[C@@H](C(=O)NCc2ccc(C#N)cc2OC(F)(F)F)C1` [Example Compound 22, (R)—N-(4-cyano-2-(trifluoromethoxy)benzyl)-1-((R)-2-(methylsulfonamido)butanoyl)piperidine-3-carboxamide] showed an IC50 of 0.5 nM.
`N#Cc1ccc(CNC(=O)[C@@H]2CCCN(C(=O)C3(C#N)CC3)C2)c(OC(F)(F)F)c1` [Example Compound 23, (R)—N-(4-cyano-2-(trifluoromethoxy)benzyl)-1-(1-cyanocyclopropanecarbonyl)piperidine-3-carboxamide] gave an IC50 of 1.8 nM.
For `CC(=O)N[C@H](C)C(=O)N1CCC[C@@H](C(=O)NCc2ccc(C#N)cc2OC(F)(F)F)C1` [Example Compound 24, (R)-1-((R)-2-acetamidopropanoyl)-N-(4-cyano-2-(trifluoromethoxy)benzyl)piperidine-3-carboxamide], the IC50 was 2.5 nM.
`C[C@@H](NS(C)(=O)=O)C(=O)N1CCC[C@@H](C(=O)NCc2ccc(C#N)cc2OC(F)(F)F)C1` [Example Compound 25, (R)—N-(4-cyano-2-(trifluoromethoxy)benzyl)-1-((R)-2-(methylsulfonamido)propanoyl)piperidine-3-carboxamide] gave an IC50 of 1.8 nM.
For `CC(C)C(=O)NC1(C(=O)N2CCC[C@@H](C(=O)NCc3ccc(C#N)cc3OC(F)(F)F)C2)CC1` [Example Compound 26, (R)—N-(4-cyano-2-(trifluoromethoxy)benzyl)-1-(1-isobutylamidocyclopropanecarbonyl)piperidine-3-carboxamide], the IC50 was 5.8 nM.
`CC(C)(C)C(=O)NC1(C(=O)N2CCC[C@@H](C(=O)NCc3ccc(C#N)cc3OC(F)(F)F)C2)CC1` [Example Compound 27, (R)—N-(4-cyano-2-(trifluoromethoxy)benzyl)-1-(1-pivalamidocyclopropanecarbonyl)piperidine-3-carboxamide] showed an IC50 of 2.2 nM.
